Results published in patent US20240092758A1, “IMIDAZOLO INDAZOLE COMPOUNDS AS JAK INHIBITORS” (Theravance Biopharma R&D IP, LLC, priority 2021, published 2024).

Tests used:
[1] = molecular target: JAK1 (Homo sapiens (Human), UniProt P23458); test: Biochemical JAK kinase assay (LanthaScreen), JAK1; conditions: for Ki: read-out: JAK1 pKi (converted)
Procedure: (§1) A panel of four LanthaScreen JAK biochemical assays (JAK1, 2, 3 and Tyk2) were carried in a common kinase reaction buffer (50 mM HEPES, pH 7.5, 0.01% Brij-35, 10 mM MgCl2, and 1 mM EGTA). Recombinant GST-tagged JAK enzymes and a GFP-tagged STAT1 peptide substrate were obtained from Life Technologies.
(§2) Serially diluted compounds were pre-incubated with each of the four JAK enzymes and the substrate in white 384-well microplates (Corning) at ambient temperature for 1 h. ATP was subsequently added to initiate the kinase reactions in 10 μL total volume, with 1% DMSO. The final enzyme concentrations for JAK1, 2, 3 and Tyk2 are 4.2 nM, 0.1 nM, 1 nM, and 0.25 nM respectively; the corresponding Km ATP concentrations used are 25 μM, 3 μM, 1.6 μM, and 10 μM; while the substrate concentration is 200 nM for all four assays. Kinase reactions were allowed to proceed for 1 hour at ambient temperature before a 10 μL preparation of EDTA (10 mM final concentration) and Tb-anti-pSTAT1 (pTyr701) antibody (Life Technologies, 2 nM final concentration) in TR-FRET dilution buffer (Life Technologies) was added. The plates were allowed to incubate at ambient temperature for 1 h before being read on the EnVision reader (Perkin Elmer). Emission ratio signals (520 nm/495 nm) were recorded and utilized to calculate the percent inhibition values based on DMSO and background controls.
(§3) For dose-response analysis, percent inhibition data were plotted vs. compound concentrations, and IC50 values were determined from a 4-parameter robust fit model with the Prism software (GraphPad Software). Results were expressed as pIC50 (negative logarithm of IC50) and subsequently converted to pKi (negative logarithm of dissociation constant, Ki) using the Cheng-Prusoff equation.
(§4) Test compounds having a lower Ki value or higher pKi value in the four JAK assays show greater inhibition of JAK activity.

[2] = molecular target: JAK2 (Homo sapiens (Human), UniProt O60674); test: Biochemical JAK kinase assay (LanthaScreen), JAK2; conditions: for Ki: read-out: JAK2 pKi (converted)
Procedure: as §1, §2, §3, §4

[3] = system: IL-13 induced STAT6 phosphorylation in BEAS-2B human lung epithelial cells; test: Cellular JAKI potency assay (BEAS-2B); type: cell-based; conditions: BEAS-2B cells; for IC50: Homo sapiens, BEAS-2B, read-out: BEAS2B pIC50 (converted)
Procedure: The JAKI cellular potency assay was carried out by measuring inhibition of interleukin-13 (IL-13, R&D Systems) induced STAT6 phosphorylation in BEAS-2B human lung epithelial cells (ATCC). BEAS-2B cells were grown at 37° C. in a 5% CO2 humidified incubator in 50% DMEM/50% F-12 medium (Life Technologies) supplemented with 10% FBS (Hyclone), 100 U/mL penicillin, 100 μg/mL streptomycin (Life Technologies), and 2 mM GlutaMAX (Life Technologies). On day 1 of the assay, cells were seeded at a 7,500 cells/well density in white poly-D-lysine-coated 384-well plates (Corning) with 25 μL medium and were allowed to adhere overnight in the incubator. On day 2 of the assay, the medium was removed and replaced with 12 μL of assay buffer (Hank's Balanced Salt Solution/HBSS, 25 mM HEPES, and 1 mg/ml bovine serum albumin/BSA) containing dose-responses of test compounds. Compounds were serially diluted in DMSO and then diluted another 1000-fold in media to bring the final DMSO concentration to 0.1%. Cells were incubated with test compounds at 37° C. for 1 h and followed by the addition of 12 μl of pre-warmed IL-13 (80 ng/mL in assay buffer) for stimulation. After incubating at 37° C. for 30 min, the assay buffer (containing compound and IL-13) was removed, and 10 μL of cell lysis buffer (25 mM HEPES, 0.1% SDS, 1% NP-40, 5 mM MgCl2, 1.3 mM EDTA, 1 mM EGTA, supplemented with Complete Ultra mini protease inhibitors and PhosSTOP from Roche Diagnostics). The plates were shaken at ambient temperature for 30 min before the addition of detection reagents. Levels of pSTAT6 were measured using the AlphaLISA SureFire Ultra pSTAT6 (Tyr641) assay kit from PerkinElmer. For dose-response analysis, percent inhibition data were plotted vs. compound concentrations, and IC50 values were determined from a 4-parameter robust fit model with the Graphpad Prism software. Results are expressed as the negative logarithm of the IC50 value, pIC50.
Test compounds having a lower IC50 value or higher pIC50 value in this assay show greater inhibition of IL-13 induced STAT6 phosphorylation.

Chain of JAK2 (O60674 whole entry): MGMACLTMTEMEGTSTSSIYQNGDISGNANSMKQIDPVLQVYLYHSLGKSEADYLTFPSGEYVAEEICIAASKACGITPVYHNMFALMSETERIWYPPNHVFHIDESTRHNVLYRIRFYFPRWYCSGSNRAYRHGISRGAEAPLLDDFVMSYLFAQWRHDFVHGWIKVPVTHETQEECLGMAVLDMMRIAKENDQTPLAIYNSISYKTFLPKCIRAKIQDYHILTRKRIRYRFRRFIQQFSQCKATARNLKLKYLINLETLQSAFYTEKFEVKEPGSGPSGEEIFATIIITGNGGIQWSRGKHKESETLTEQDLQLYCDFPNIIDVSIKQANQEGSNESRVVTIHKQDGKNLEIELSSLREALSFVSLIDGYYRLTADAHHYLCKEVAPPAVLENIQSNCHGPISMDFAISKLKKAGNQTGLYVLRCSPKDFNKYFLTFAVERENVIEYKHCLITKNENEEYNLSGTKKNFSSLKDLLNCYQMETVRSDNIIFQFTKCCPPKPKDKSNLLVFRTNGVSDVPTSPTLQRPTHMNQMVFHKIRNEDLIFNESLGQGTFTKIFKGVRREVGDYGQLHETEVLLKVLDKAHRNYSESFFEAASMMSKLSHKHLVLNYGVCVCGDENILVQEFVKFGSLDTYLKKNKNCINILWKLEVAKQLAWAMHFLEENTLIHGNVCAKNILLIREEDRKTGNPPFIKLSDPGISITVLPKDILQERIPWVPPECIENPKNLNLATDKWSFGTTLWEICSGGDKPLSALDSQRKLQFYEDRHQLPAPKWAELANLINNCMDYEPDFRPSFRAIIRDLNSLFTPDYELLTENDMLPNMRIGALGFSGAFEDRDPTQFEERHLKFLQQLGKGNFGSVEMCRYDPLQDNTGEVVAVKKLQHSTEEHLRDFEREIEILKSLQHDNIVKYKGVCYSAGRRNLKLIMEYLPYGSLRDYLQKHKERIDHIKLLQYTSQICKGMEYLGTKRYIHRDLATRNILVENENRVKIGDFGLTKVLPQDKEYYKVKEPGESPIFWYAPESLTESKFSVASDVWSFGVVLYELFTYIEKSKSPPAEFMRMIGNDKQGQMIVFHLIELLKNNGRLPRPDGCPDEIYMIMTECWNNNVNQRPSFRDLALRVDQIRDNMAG
Chain of JAK1 (P23458 whole entry): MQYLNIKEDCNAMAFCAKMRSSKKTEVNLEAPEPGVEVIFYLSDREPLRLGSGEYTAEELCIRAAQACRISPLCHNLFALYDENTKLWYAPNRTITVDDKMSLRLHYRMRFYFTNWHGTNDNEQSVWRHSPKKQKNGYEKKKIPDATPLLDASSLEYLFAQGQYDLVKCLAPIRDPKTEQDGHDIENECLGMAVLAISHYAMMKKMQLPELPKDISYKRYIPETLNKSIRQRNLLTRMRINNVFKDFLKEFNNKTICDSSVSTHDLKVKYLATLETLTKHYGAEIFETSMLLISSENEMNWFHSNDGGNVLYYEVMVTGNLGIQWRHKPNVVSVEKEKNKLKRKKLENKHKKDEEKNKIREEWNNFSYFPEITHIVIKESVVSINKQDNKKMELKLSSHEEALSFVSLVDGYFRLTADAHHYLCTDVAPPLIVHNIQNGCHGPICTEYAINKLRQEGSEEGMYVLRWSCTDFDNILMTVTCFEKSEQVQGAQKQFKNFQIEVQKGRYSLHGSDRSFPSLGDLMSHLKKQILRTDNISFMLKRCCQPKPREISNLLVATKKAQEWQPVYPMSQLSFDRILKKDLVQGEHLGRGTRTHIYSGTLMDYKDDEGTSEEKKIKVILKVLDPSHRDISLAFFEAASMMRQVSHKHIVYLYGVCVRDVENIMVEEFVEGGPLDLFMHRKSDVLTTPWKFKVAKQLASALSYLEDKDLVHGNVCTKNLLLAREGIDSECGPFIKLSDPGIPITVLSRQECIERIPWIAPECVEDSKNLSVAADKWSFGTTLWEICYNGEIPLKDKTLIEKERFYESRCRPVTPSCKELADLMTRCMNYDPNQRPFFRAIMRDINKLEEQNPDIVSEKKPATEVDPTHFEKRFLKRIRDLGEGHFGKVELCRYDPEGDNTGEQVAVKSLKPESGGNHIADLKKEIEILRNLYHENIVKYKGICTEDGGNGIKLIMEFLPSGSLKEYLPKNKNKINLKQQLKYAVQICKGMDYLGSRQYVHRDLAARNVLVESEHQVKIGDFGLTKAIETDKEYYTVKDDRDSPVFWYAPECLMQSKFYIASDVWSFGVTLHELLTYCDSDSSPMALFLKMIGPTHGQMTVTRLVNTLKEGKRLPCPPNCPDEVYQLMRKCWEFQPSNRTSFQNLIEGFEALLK

SMILES	Ki [1] [nM]	Ki [2] [nM]	IC50 [3] [nM]	JAK1 pKi [1]	JAK2 pKi [2]	BEAS2B pIC50 [3]
CCc1cc(O)ccc1-c1ccc2c(-c3nc(C4=CCCN(CC(=O)NC)C4)c[nH]3)n[nH]c2c1F [Example 92]	1 to 10	0.1 to 1	10 to 31.6			
CCc1cc(O)ccc1-c1ccc2c(-c3nc(C4=CCN(C[C@H]5COCCN5)CC4)c[nH]3)n[nH]c2c1F [Example 190]	0.1 to 1	0.1 to 1	31.6 to 100			
CCc1cc(O)ccc1-c1ccc2c(-c3nc(C4=CCCN(Cc5ccccc5)C4)c[nH]3)n[nH]c2c1 [Example 138]	0.1 to 1	0.1 to 1	100 to 316			
CCc1cc(O)ccc1-c1ccc2c(-c3nc(C4=CCN(Cc5c[nH]nn5)C4)c[nH]3)n[nH]c2c1 [Example 144]			10 to 31.6	A (A represents a pKi value ≥10 (Ki≤0.1 nM))	A (A represents a pKi value ≥10 (Ki≤0.1 nM))	
CCc1cc(O)ccc1-c1ccc2c(-c3nc(C4=CCN(CCS(C)(=O)=O)CC4)c[nH]3)n[nH]c2c1F [Example 82]	0.1 to 1	0.1 to 1	10 to 31.6			
CCc1cc(O)ccc1-c1ccc2c(-c3nc(C4=CCN(C(C)=O)CC4)c[nH]3)n[nH]c2c1F [Example 154]	0.1 to 1	0.1 to 1	10 to 31.6			
CCc1cc(O)ccc1-c1ccc2c(-c3nc(C4=CCCN(C(=O)[C@@H](N)C(C)(C)O)C4)c[nH]3)n[nH]c2c1 [Example 165]	0.1 to 1		10 to 31.6			
CCc1cc(O)ccc1-c1ccc2c(-c3nc(C4=CCN(Cc5cnc[nH]5)CC4)c[nH]3)n[nH]c2c1F [Example 136]	0.1 to 1	0.1 to 1	31.6 to 100			
CCc1cc(O)ccc1-c1ccc2c(-c3nc(C4=CCNC(CC)C4)c[nH]3)n[nH]c2c1 (stereo not drawn) [Example 312]	0.1 to 1	0.1 to 1	10 to 31.6			
CCc1cc(O)ccc1-c1ccc2c(-c3nc(C4=CCN(C(C)=O)C4)c[nH]3)n[nH]c2c1F [Example 171]	0.1 to 1	0.1 to 1	10 to 31.6			
CCc1cc(O)ccc1-c1ccc2c(-c3nc(C4=CCNC(CC)C4)c[nH]3)n[nH]c2c1F (stereo not drawn) [Example 346]	1 to 10	0.1 to 1	10 to 31.6			
CCc1cc(O)ccc1-c1ccc2c(-c3nc(C4=CCN(C5CC(O)C5)CC4)c[nH]3)n[nH]c2c1F (stereo not drawn) [Example 40]			10 to 31.6	A (A represents a pKi value ≥10 (Ki≤0.1 nM))	A (A represents a pKi value ≥10 (Ki≤0.1 nM))	
CCc1cc(O)ccc1-c1ccc2c(-c3nc(C4=CCN(C(C)=O)CC4)c[nH]3)n[nH]c2c1 [Example 147]	0.1 to 1	0.1 to 1	10 to 31.6			
CCc1cc(O)ccc1-c1ccc2c(-c3nc(C4=CCN(CCC(C)(C)O)CC4)c[nH]3)n[nH]c2c1F [Example 37]	0.1 to 1	0.1 to 1	10 to 31.6			
CCc1cc(O)ccc1-c1ccc2c(-c3nc(C4=CCNC(C(C)(C)C)C4)c[nH]3)n[nH]c2c1F (stereo not drawn) [Example 370]	1 to 10	0.1 to 1	31.6 to 100			
CCc1cc(O)ccc1-c1ccc2c(-c3nc(C4=CCCN(CCC5(O)CC5)C4)c[nH]3)n[nH]c2c1F [Example 338]	0.1 to 1	0.1 to 1	10 to 31.6			
CCc1cc(O)ccc1-c1ccc2c(-c3nc(C4=CCN(CCNS(C)(=O)=O)CC4)c[nH]3)n[nH]c2c1 [Example 99]			10 to 31.6	A (A represents a pKi value ≥10 (Ki≤0.1 nM))	A (A represents a pKi value ≥10 (Ki≤0.1 nM))	
CCc1cc(O)ccc1-c1ccc2c(-c3nc(C4=CCN(C(=O)CN(CCO)CCO)C4)c[nH]3)n[nH]c2c1F [Example 364]	0.1 to 1		31.6 to 100		A (A represents a pKi value ≥10 (Ki≤0.1 nM))	
CCc1cc(O)ccc1-c1ccc2c(-c3nc(C4=C[C@H](CO)N(C)C4)c[nH]3)n[nH]c2c1F [Example 289]			3.16 to 10	A (A represents a pKi value ≥10 (Ki≤0.1 nM))	A (A represents a pKi value ≥10 (Ki≤0.1 nM))	
CCc1cc(O)ccc1-c1ccc2c(-c3nc(C4=CCCNC4C)c[nH]3)n[nH]c2c1F (stereo not drawn) [Example 237]	0.1 to 1		10 to 31.6		A (A represents a pKi value ≥10 (Ki≤0.1 nM))	
CCc1cc(O)ccc1-c1ccc2c(-c3nc(C4=CCN(CCS(=O)(=O)NC)C4)c[nH]3)n[nH]c2c1 [Example 96]	0.1 to 1		10 to 31.6		A (A represents a pKi value ≥10 (Ki≤0.1 nM))	
CCc1cc(O)ccc1-c1ccc2c(-c3nc(C4=CCN(C(=O)CCN(C)C)C4)c[nH]3)n[nH]c2c1F [Example 363]	0.1 to 1		31.6 to 100		A (A represents a pKi value ≥10 (Ki≤0.1 nM))	
CCc1cc(O)ccc1-c1ccc2c(-c3nc(C4=CCN[C@H](CO)C4)c[nH]3)n[nH]c2c1F [Example 392]				B (B represents a pKi value between 9 (included) and 10 (Ki between 1 nM and 0.1 nM))	B (B represents a pKi value between 9 (included) and 10 (Ki between 1 nM and 0.1 nM))	D (D represents a pIC50 value between 6.5 (included) and 7)
CCc1cc(O)ccc1-c1ccc2c(-c3nc(C4=C[C@@H](COC)NC4)c[nH]3)n[nH]c2c1 [Example 242]		0.1 to 1	3.16 to 10	A (A represents a pKi value ≥10 (Ki≤0.1 nM))		
CCc1cc(O)ccc1-c1ccc2c(-c3nc(C4=CCN(S(C)(=O)=O)C4)c[nH]3)n[nH]c2c1 [Example 167]	0.1 to 1	1 to 10	3.16 to 10			
CCc1cc(O)ccc1-c1ccc2c(-c3nc(C4=CC[C@H](C)N(C[C@H]5COCCN5)C4)c[nH]3)n[nH]c2c1F [Example 269]	0.1 to 1	0.1 to 1	31.6 to 100			
CCc1cc(O)ccc1-c1ccc2c(-c3nc(C4=C[C@H](CO)N(CCS(=O)(=O)NC)C4)c[nH]3)n[nH]c2c1F [Example 280]			100 to 316		A (A represents a pKi value ≥10 (Ki≤0.1 nM))	
CCc1cc(O)ccc1-c1ccc2c(-c3nc(C4=C[C@H](CO)N(CCS(C)(=O)=O)C4)c[nH]3)n[nH]c2c1F [Example 279]	0.1 to 1		31.6 to 100			
